Measurements: PubChem BioAssay (NCI)
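All cell lines were grown in 96-well plates and treated with compound for 48 hours. The concentration for full growth arrest is given as TGI.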

Columns and labels:
Test in all cases: growth of human tumour cells (NCI), 48 h
OVCAR-3 ovarian = system: OVCAR-3 ovarian
SF-268 CNS = system: SF-268 CNS
ACHN renal = system: ACHN renal
PC-3 prostate = system: PC-3 prostate
SK-MEL-5 melanoma = system: SK-MEL-5 melanoma
HCC-2998 colon = system: HCC-2998 colon
M14 melanoma = system: M14 melanoma
TK-10 renal = system: TK-10 renal
MALME-3M melanoma = system: MALME-3M melanoma
LOX IMVI melanoma = system: LOX IMVI melanoma
KM12 colon = system: KM12 colon
CAKI-1 renal = system: CAKI-1 renal
SF-539 CNS = system: SF-539 CNS
A549 NSCLC = system: A549 NSCLC
IGROV1 ovarian = system: IGROV1 ovarian
MDA-N = system: MDA-N
SNB-75 CNS = system: SNB-75 CNS
HCT-15 colon = system: HCT-15 colon
DU-145 prostate = system: DU-145 prostate
MCF7 breast = system: MCF7 breast
UACC-257 melanoma = system: UACC-257 melanoma
NCI/ADR-RES ovarian = system: NCI/ADR-RES ovarian
HT29 colon = system: HT29 colon
SNB-19 CNS = system: SNB-19 CNS
SK-OV-3 ovarian = system: SK-OV-3 ovarian
SR leukemia = system: SR leukemia
A498 renal = system: A498 renal
HS 578T breast = system: HS 578T breast
MDA-MB-435 = system: MDA-MB-435
NCI-H522 lung = system: NCI-H522 lung
SK-MEL-28 melanoma = system: SK-MEL-28 melanoma
NCI-H226 lung = system: NCI-H226 lung
T-47D breast = system: T-47D breast
OVCAR-4 ovarian = system: OVCAR-4 ovarian
SF-295 CNS = system: SF-295 CNS
NCI-H23 lung = system: NCI-H23 lung
SW-620 colon = system: SW-620 colon
SN12C renal = system: SN12C renal
OVCAR-8 ovarian = system: OVCAR-8 ovarian
BT-549 breast = system: BT-549 breast
CCRF-CEM leukemia = system: CCRF-CEM leukemia
NCI-H460 lung = system: NCI-H460 lung
EKVX NSCLC = system: EKVX NSCLC
HL-60(TB) leukemia = system: HL-60(TB) leukemia
MOLT-4 leukemia = system: MOLT-4 leukemia
U251 CNS = system: U251 CNS
HOP-62 NSCLC = system: HOP-62 NSCLC
UO-31 renal = system: UO-31 renal
SK-MEL-2 melanoma = system: SK-MEL-2 melanoma
UACC-62 melanoma = system: UACC-62 melanoma
MDA-MB-231 breast = system: MDA-MB-231 breast
HOP-92 NSCLC = system: HOP-92 NSCLC
HCT-116 colon = system: HCT-116 colon
COLO 205 colon = system: COLO 205 colon
RXF 393 renal = system: RXF 393 renal
786-0 renal = system: 786-0 renal
OVCAR-5 ovarian = system: OVCAR-5 ovarian
K-562 leukemia = system: K-562 leukemia
RPMI-8226 leukemia = system: RPMI-8226 leukemia

For `CCN1C/C(=C\c2cc(OC)c(OC)c(OC)c2)C2=NN(c3ccccc3)C(c3cc(OC)c(OC)c(OC)c3)C2C1` (stereo not given), the TGI (OVCAR-3 ovarian) was > 25.1 µM, the TGI (SF-268 CNS) was 1.58 µM and the TGI (ACHN renal) was > 36 µM. It also gave a TGI (PC-3 prostate) of 2.46 µM, a TGI (SK-MEL-5 melanoma) of 15.5 µM and a TGI (HCC-2998 colon) of 2.25 µM. The TGI (M14 melanoma) was 6.48 µM, the TGI (TK-10 renal) was 6.14 µM and the TGI (MALME-3M melanoma) was 1.64 µM. For the same compound, the TGI (LOX IMVI melanoma) was 10.6 µM, the TGI (KM12 colon) was > 36 µM and the TGI (CAKI-1 renal) was 3.85 µM. It also gave a TGI (SF-539 CNS) of 1.91 µM, a TGI (A549 NSCLC) of 4.9 µM and a TGI (IGROV1 ovarian) of 21.3 µM. The TGI (MDA-N) was 10.8 µM, the TGI (SNB-75 CNS) was 1.32 µM and the TGI (HCT-15 colon) was 25.7 µM. For the same compound, the TGI (DU-145 prostate) was 23.6 µM, the TGI (MCF7 breast) was > 38.1 µM and the TGI (UACC-257 melanoma) was 12.7 µM. The TGI (NCI/ADR-RES ovarian) was 7.4 µM, the TGI (HT29 colon) was 6.8 µM and the TGI (SNB-19 CNS) was 6 µM. It also gave a TGI (SK-OV-3 ovarian) of 6.38 µM, a TGI (SR leukemia) of 65.5 µM and a TGI (A498 renal) of 43.6 µM. The TGI (HS 578T breast) was 1.32 µM, the TGI (MDA-MB-435) was 6.51 µM and the TGI (NCI-H522 lung) was 3.06 µM. The TGI (SK-MEL-28 melanoma) was 2 µM, the TGI (NCI-H226 lung) was 11.1 µM and the TGI (T-47D breast) was 18 µM. The TGI (OVCAR-4 ovarian) was 24.6 µM, the TGI (SF-295 CNS) was 18.5 µM and the TGI (NCI-H23 lung) was 19.2 µM. For the same compound, the TGI (SW-620 colon) was > 100 µM, the TGI (SN12C renal) was 11.3 µM and the TGI (OVCAR-8 ovarian) was 4.72 µM. For the same compound, the TGI (BT-549 breast) was 22 µM, the TGI (CCRF-CEM leukemia) was 8.3 µM and the TGI (NCI-H460 lung) was 2.24 µM. For the same compound, the TGI (EKVX NSCLC) was 11.4 µM, the TGI (HL-60(TB) leukemia) was > 23.8 µM and the TGI (MOLT-4 leukemia) was > 19.8 µM. It also gave a TGI (U251 CNS) of 1.85 µM, a TGI (HOP-62 NSCLC) of 2.51 µM and a TGI (UO-31 renal) of 6.68 µM. The TGI (SK-MEL-2 melanoma) was 31.9 µM, the TGI (UACC-62 melanoma) was > 54.2 µM and the TGI (MDA-MB-231 breast) was 1.54 µM. For the same compound, the TGI (HOP-92 NSCLC) was 13.5 µM, the TGI (HCT-116 colon) was 5.77 µM and the TGI (COLO 205 colon) was 7.13 µM. It also gave a TGI (RXF 393 renal) of 2.2 µM, a TGI (786-0 renal) of 1.48 µM and a TGI (OVCAR-5 ovarian) of 12.3 µM.

In the case of `C[C@H](CCC(=O)NN)[C@H]1CC[C@H]2[C@@H]3CC[C@@H]4C[C@H](O)CC[C@]4(C)[C@H]3CC[C@]12C`, the TGI (OVCAR-3 ovarian) is reported as > 100 µM, the TGI (SF-268 CNS) is reported as > 100 µM and the TGI (K-562 leukemia) is reported as 41.1 µM. For the same compound, the TGI (ACHN renal) was > 100 µM, the TGI (PC-3 prostate) was > 100 µM and the TGI (SK-MEL-5 melanoma) was 56.4 µM. The TGI (HCC-2998 colon) was > 90.6 µM, the TGI (M14 melanoma) was 72.4 µM and the TGI (TK-10 renal) was > 93.8 µM. The TGI (MALME-3M melanoma) was > 100 µM, the TGI (LOX IMVI melanoma) was > 100 µM and the TGI (KM12 colon) was > 100 µM. The TGI (CAKI-1 renal) was > 100 µM, the TGI (SF-539 CNS) was > 100 µM and the TGI (A549 NSCLC) was > 100 µM. For the same compound, the TGI (IGROV1 ovarian) was > 100 µM, the TGI (MDA-N) was > 100 µM and the TGI (HCT-15 colon) was > 100 µM. For the same compound, the TGI (DU-145 prostate) was > 88.8 µM, the TGI (MCF7 breast) was 97.1 µM and the TGI (UACC-257 melanoma) was > 100 µM. The TGI (NCI/ADR-RES ovarian) was > 100 µM, the TGI (HT29 colon) was > 100 µM and the TGI (SNB-19 CNS) was > 100 µM. The TGI (SK-OV-3 ovarian) was > 100 µM, the TGI (SR leukemia) was 62.2 µM and the TGI (A498 renal) was > 100 µM. For the same compound, the TGI (HS 578T breast) was > 100 µM, the TGI (MDA-MB-435) was > 100 µM and the TGI (NCI-H522 lung) was > 70.1 µM. For the same compound, the TGI (SK-MEL-28 melanoma) was > 100 µM, the TGI (NCI-H226 lung) was > 100 µM and the TGI (T-47D breast) was > 100 µM. The TGI (OVCAR-4 ovarian) was > 100 µM, the TGI (SF-295 CNS) was > 100 µM and the TGI (NCI-H23 lung) was > 100 µM. The TGI (SW-620 colon) was > 100 µM, the TGI (SN12C renal) was > 100 µM and the TGI (OVCAR-8 ovarian) was > 100 µM. The TGI (BT-549 breast) was > 100 µM, the TGI (RPMI-8226 leukemia) was 59.9 µM and the TGI (CCRF-CEM leukemia) was > 72.1 µM. For the same compound, the TGI (NCI-H460 lung) was > 100 µM, the TGI (EKVX NSCLC) was > 100 µM and the TGI (HL-60(TB) leukemia) was 37.6 µM. For the same compound, the TGI (MOLT-4 leukemia) was > 52.7 µM, the TGI (U251 CNS) was > 100 µM and the TGI (HOP-62 NSCLC) was > 100 µM. For the same compound, the TGI (UO-31 renal) was > 100 µM, the TGI (SK-MEL-2 melanoma) was > 100 µM and the TGI (UACC-62 melanoma) was > 100 µM. For the same compound, the TGI (MDA-MB-231 breast) was > 100 µM, the TGI (HOP-92 NSCLC) was > 100 µM and the TGI (HCT-116 colon) was > 100 µM. For the same compound, the TGI (COLO 205 colon) was > 96 µM, the TGI (RXF 393 renal) was 67.2 µM and the TGI (786-0 renal) was > 100 µM. The TGI (OVCAR-5 ovarian) was > 100 µM.
